SMILES strings stand for the structures. Where only a bound is given, the exact number is not on record here.

Series [1] in a line: Stability in human plasma. Format: in vitro ADME. The settings on record: 2 μM peptidomimetic, pooled human plasma, 37° C.; for half-life at 2 μM: pH 7.8, read-out: half-life (t1/2) when incubated with human plasma. Here is the method:
(§1) Reactions were terminated by the addition of TFA/H2O (15 mL, 10% (v/v)). […] The column was equilibrated with TFA/H20, at a flow rate of 1 mL/min.

Series [2] can be described thus: Stability in liver microsomes. Format: in vitro ADME. The conditions noted are these: 2 μM peptidomimetic, human liver microsomes, 37° C.; for half-life at 2 μM: pH 7.8, read-out: half-life (t1/2) when incubated with liver microsomes. Here is the method: as §1
The target in series [3] is DPP IV (Homo sapiens, UniProt P27487). As to the kind of experiment: Stability against DPP IV enzyme. Format: in vitro ADME. The conditions noted are these: 37° C.; for % degradation of peptidomimetics in 24 h when incubated with DPP-IV enzyme: 2 μM peptidomimetic; for half-life at 2 μM: DPP IV enzyme, pH 7.8, 2 μM peptidomimetic, read-out: half-life (t1/2) when incubated with DPP-IV enzyme. The procedure:
as §1

Series [4] in a line: Stability in simulated gastric fluid. Format: in vitro ADME. The settings on record: 2 μM peptidomimetic, simulated gastric fluid pH 1.5, 37° C. The procedure:
as §1

In series [5] the target is T1, human glucagon receptor (Homo sapiens, UniProt P47871).
T1 construct: The full-length cDNA was cloned in pcDNA3.1 (Invitrogen); expressed in transfected cells
As to the kind of experiment: In vitro human glucagon antagonist activity (inhibition of cAMP production) in CHO/human glucagon R cells. Format: cell-based. The conditions noted are these: with saturated concentration of glucagon peptide. On the technique in general: Cyclic AMP is a second messenger, typically raised through Gs and lowered through Gi signalling.

The target of series [6] is T2, Human GLP-1 receptor (Homo sapiens, UniProt P43220).
T2 construct: The full-length cDNA was cloned in pcDNA3.1(+); expressed in transfected cells
As to the kind of experiment: In vitro Human GLP-1 R agonist activity (cyclic AMP determination) in CHO/human GLP1R cells. Format: cell-based.

Series [7] is described as follows: Stability in simulated intestinal fluid. Format: in vitro ADME. The conditions noted are these: 2 μM peptidomimetic, simulated intestinal fluid pH 7.5, 37° C. The procedure:
as §1

DPP IV, sequence (P27487 whole entry, species assumed): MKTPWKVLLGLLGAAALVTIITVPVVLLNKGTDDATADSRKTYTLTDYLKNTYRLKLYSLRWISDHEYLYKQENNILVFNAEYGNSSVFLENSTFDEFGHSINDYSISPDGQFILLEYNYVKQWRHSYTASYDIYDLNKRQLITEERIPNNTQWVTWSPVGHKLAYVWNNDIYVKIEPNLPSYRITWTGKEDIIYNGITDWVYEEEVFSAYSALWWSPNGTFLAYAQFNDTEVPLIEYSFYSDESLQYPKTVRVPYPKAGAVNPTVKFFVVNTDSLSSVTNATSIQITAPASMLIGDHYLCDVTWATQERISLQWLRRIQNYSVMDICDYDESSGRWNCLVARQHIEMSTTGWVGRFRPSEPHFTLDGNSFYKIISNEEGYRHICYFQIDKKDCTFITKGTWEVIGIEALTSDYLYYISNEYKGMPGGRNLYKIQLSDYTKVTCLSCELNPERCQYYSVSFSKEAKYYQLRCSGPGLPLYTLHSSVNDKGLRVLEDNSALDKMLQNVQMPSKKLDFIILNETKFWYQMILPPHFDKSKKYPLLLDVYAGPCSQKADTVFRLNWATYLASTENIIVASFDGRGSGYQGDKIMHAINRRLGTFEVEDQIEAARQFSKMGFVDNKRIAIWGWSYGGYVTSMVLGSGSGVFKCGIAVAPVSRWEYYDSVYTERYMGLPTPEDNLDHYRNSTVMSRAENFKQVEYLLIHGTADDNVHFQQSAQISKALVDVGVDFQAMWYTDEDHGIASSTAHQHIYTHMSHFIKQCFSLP
T1 sequence (P47871 26-477): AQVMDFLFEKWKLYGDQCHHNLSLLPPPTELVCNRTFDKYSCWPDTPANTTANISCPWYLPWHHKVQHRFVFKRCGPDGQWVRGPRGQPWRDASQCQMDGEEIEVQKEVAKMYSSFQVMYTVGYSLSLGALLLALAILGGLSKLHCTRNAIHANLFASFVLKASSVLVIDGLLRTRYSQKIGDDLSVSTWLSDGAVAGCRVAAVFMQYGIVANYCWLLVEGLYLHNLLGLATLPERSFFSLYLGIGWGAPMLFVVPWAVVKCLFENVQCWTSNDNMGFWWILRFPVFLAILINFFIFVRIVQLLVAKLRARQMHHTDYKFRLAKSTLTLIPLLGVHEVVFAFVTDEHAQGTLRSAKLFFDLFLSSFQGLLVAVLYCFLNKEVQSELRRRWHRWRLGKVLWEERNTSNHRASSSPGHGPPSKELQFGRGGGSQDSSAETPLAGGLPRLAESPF
T2 sequence (P43220 24-463): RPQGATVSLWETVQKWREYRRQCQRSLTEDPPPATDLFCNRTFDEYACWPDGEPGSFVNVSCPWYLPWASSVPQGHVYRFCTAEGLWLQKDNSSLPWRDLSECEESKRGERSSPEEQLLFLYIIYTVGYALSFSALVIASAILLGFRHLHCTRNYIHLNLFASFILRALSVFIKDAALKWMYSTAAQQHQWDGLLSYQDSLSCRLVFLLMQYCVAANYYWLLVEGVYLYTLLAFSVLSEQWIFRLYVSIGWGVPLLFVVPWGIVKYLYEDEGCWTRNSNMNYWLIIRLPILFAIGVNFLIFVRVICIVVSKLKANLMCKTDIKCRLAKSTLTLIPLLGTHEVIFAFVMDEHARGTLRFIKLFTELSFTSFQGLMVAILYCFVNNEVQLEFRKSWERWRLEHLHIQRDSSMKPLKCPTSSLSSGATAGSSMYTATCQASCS

Take `CCc1cc(OC)ccc1-c1ccc(CC(CNC(CCCc2ccccc2F)C(N)=O)NC[C@H](CC(=O)O)NC(=O)[C@H](CO)NC(=O)[C@@H](NC(=O)C(C)(Cc2ccccc2F)NC(=O)[C@@H](NC(=O)CNC(=O)C(CCC#N)NC(=O)C(C)(C)NC(=O)[C@@H](N)Cc2c[nH]cn2)[C@H](C)O)[C@H](C)O)cc1` (single isomer, unassigned) [compound 204]: the “% degradation of peptidomimetics in 24 h when incubated with human plasma” value (“% degradation … with human plasma” below) in series [1] worked out at 00%. The half-life at 2 μM in series [1], in series [3], in series [4] (read-out: half-life (t1/2) when incubated with simulated gastric fluid) and in series [7] (read-out: half-life (t1/2) when incubated with simulated intestinal fluid) was more than 24 h throughout. Moreover, the “half-life (t1/2) when incubated with liver microsomes” value in series [2] is “(5) h”. Also, the “% degradation of peptidomimetics in 24 h when incubated with liver microsomes” value (“% degradation … with liver microsomes” below) in series [2] was found to be 32%. Moreover, the “% degradation of peptidomimetics in 24 h when incubated with DPP-IV enzyme” value (“% degradation … with DPP-IV enzyme” below) in series [3] is reported as 00%. For the same molecule, in series [4], the “% degradation of peptidomimetics in 24 h when incubated with simulated gastric fluid” value (“% degradation … with simulated gastric fluid” for short) is given as 00%. The “Human Glucagon receptor antagonistic activity shown as inhibition of cAMP production of Glucagon peptide” value in series [5] (1 nM test compound) is 6 ± 0.05 pmol/ml/μg prt; in series [5] (10 nM test compound), 5 ± 0.04 pmol/ml/μg prt; in series [5] (100 nM test compound), 2 ± 0.16 pmol/ml/μg prt; in series [5] (1 μM test compound) it was 0 pmol/ml/μg prt; in series [5] (10 μM test compound) it was 0 pmol/ml/μg prt. The “Human GLP-1 R activity (cAMP release), % activity with respect to control” value in series [6] (1 nM test compound) is 96 ± 0.02%; in series [6] (10 nM test compound) it was 99 ± 0.46%; in series [6] (100 nM test compound), 99 ± 0.41%; in series [6] (1 μM test compound), 99 ± 0.66%; in series [6] (10 μM test compound), 99 ± 0.03%. The “% degradation of peptidomimetics in 24 h when incubated with simulated intestinal fluid” value (“% degradation … with simulated intestinal fluid” below) in series [7] is recorded as 00%.

In the case of `CCc1cc(OC)ccc1-c1ccc(CC(NC(=O)[C@H](CC(=O)O)NC(=O)[C@H](CO)NC(=O)[C@@H](NC(=O)[C@H](Cc2ccccc2)NC(=O)[C@@H](NC(=O)CNC(=O)[C@H](CCC(N)=O)NC(=O)C2(NC(=O)[C@@H](N)Cc3c[nH]cn3)CC2)[C@@H](C)O)[C@@H](C)O)C(=O)NC(CCCc2ccc(F)cc2C(F)(F)F)C(N)=O)cc1` (single isomer, unassigned) [compound 72], the “% degradation … with human plasma” value in series [1] worked out at 70%. In addition, the half-life at 2 μM is 8 h in series [1], 1 h in series [2] and 9 h in series [3]. Also, the “% degradation … with liver microsomes” value in series [2] is 77%. Further, in series [3], the “% degradation … with DPP-IV enzyme” value was 86%. In addition, in series [4], the “half-life (t1/2) when incubated with simulated gastric fluid” value (from here on “half-life … with simulated gastric fluid”) is given as “(8) h”. In addition, the “% degradation … with simulated gastric fluid” value in series [4] was 15%. In addition, the “Human Glucagon receptor antagonistic activity shown as inhibition of cAMP production of Glucagon peptide” value in series [5] (1 nM test compound) came out at 9 ± 0.11 pmol/ml/μg prt; in series [5] (10 nM test compound), 6 ± 0.12 pmol/ml/μg prt; in series [5] (100 nM test compound), 5 ± 0.14 pmol/ml/μg prt; in series [5] (1 μM test compound) it was 3 ± 0.22 pmol/ml/μg prt; in series [5] (10 μM test compound) it was 0 pmol/ml/μg prt. Also, the “Human GLP-1 R activity (cAMP release), % activity with respect to control” value in series [6] (1 nM test compound) is recorded as 45 ± 0.022%; in series [6] (10 nM test compound), 84 ± 0.46%; in series [6] (100 nM test compound), 90 ± 0.41%; in series [6] (1 μM test compound), 99 ± 0.66%; in series [6] (10 μM test compound), 99 ± 0.03%. In addition, in series [7], the “half-life (t1/2) when incubated with simulated intestinal fluid” value (“half-life … with simulated intestinal fluid” for short) is listed as “(6) h”. For the same molecule, the “% degradation … with simulated intestinal fluid” value in series [7] is 41%.

On to `CCc1cc(OC)ccc1-c1ccc(CC(NC(=O)[C@H](CC(=O)O)NC(=O)[C@H](CO)NC(=O)[C@@H](NC(=O)[C@H](Cc2ccccc2)NC(=O)[C@@H](NC(=O)CNC(=O)[C@H](CCC(N)=O)NC(=O)C(C)(C)NC(=O)[C@@H](N)Cc2c[nH]cn2)[C@@H](C)O)[C@@H](C)O)C(=O)NC(CCCc2cccc(Cl)c2)C(N)=O)cc1` (single isomer, unassigned) [compound 19], for which the “% degradation … with human plasma” value in series [1] came out at 70%. Also, the half-life at 2 μM was found to be 8 h in series [1], 1 h in series [2] and 9 h in series [3]. Besides, the “% degradation … with liver microsomes” value in series [2] stood at 77%. Moreover, the “% degradation … with DPP-IV enzyme” value in series [3] came to 86%. Further, the “half-life … with simulated gastric fluid” value in series [4] was “(8) h”. Moreover, the “% degradation … with simulated gastric fluid” value in series [4] is recorded as 15%. For the same molecule, the “Human Glucagon receptor antagonistic activity shown as inhibition of cAMP production of Glucagon peptide” value in series [5] (1 nM test compound), in series [5] (10 nM test compound), in series [5] (100 nM test compound), in series [5] (1 μM test compound) and in series [5] (10 μM test compound) was 0 pmol/ml/μg prt in each case. Moreover, the “Human GLP-1 R activity (cAMP release), % activity with respect to control” value in series [6] (1 nM test compound) amounted to 99 ± 0.12%; in series [6] (10 nM test compound), 99 ± 0.08%; in series [6] (100 nM test compound), 99 ± 0.11%; in series [6] (1 μM test compound), 99 ± 0.12%; in series [6] (10 μM test compound), 99 ± 0.16%. For the same molecule, the “half-life … with simulated intestinal fluid” value in series [7] is given as “(6) h”. In series [7], the “% degradation … with simulated intestinal fluid” value was 41%.

As for `CCc1cc(OC)ccc1-c1ccc(CC(C(=O)N(C)C(CCCc2ccccc2F)C(N)=O)N(C)C(=O)[C@H](CC(=O)O)NC(=O)[C@H](CO)NC(=O)[C@@H](NC(=O)C(C)(Cc2ccccc2F)NC(=O)[C@@H](NC(=O)CNC(=O)C(CCC#N)NC(=O)C(C)(C)NC(=O)[C@@H](N)Cc2c[nH]cn2)[C@H](C)O)[C@H](C)O)cc1` (single isomer, unassigned) [compound 144], in series [1], the “% degradation … with human plasma” value came to 78%. Further, the half-life at 2 μM in series [1] was found to be 8 h; in series [2], 1 h; in series [3] it was 9 h. Further, in series [2], the “% degradation … with liver microsomes” value stood at 80%. For the same molecule, the “% degradation … with DPP-IV enzyme” value in series [3] was determined as 76%. Besides, the “half-life … with simulated gastric fluid” value in series [4] is reported as “(8) h”. Besides, in series [4], the “% degradation … with simulated gastric fluid” value is reported as 14%. Moreover, the “Human Glucagon receptor antagonistic activity shown as inhibition of cAMP production of Glucagon peptide” value in series [5] (1 nM test compound) came to 5 ± 0.09 pmol/ml/μg prt; in series [5] (10 nM test compound), 3 ± 0.11 pmol/ml/μg prt; in series [5] (100 nM test compound), 0 pmol/ml/μg prt; in series [5] (1 μM test compound), 0 pmol/ml/μg prt; in series [5] (10 μM test compound), 0 pmol/ml/μg prt. In addition, the “Human GLP-1 R activity (cAMP release), % activity with respect to control” value is 55 ± 0.16% in series [6] (1 nM test compound); 89 ± 0.05% in series [6] (10 nM test compound); 93 ± 0.09% in series [6] (100 nM test compound); 99 ± 0.02% in series [6] (1 μM test compound); 99 ± 0.04% in series [6] (10 μM test compound). Further, the “half-life … with simulated intestinal fluid” value in series [7] was “(6) h”. In series [7], the “% degradation … with simulated intestinal fluid” value is listed as 43%.

Values taken from US8883963B2 (Cadila Healthcare Limited, priority 2007, dated 2014).
